Patent publication US20240409585A1, “MACROCYCLIC IMMUNOMODULATORS” (priority 2021, published 2024)
Bridge positions count the residues as written; N and C are the ends. Square brackets hold non-standard residues; d marks the D form. Peptide text beside a SMILES is read from it. * marks the point of attachment. ξ: configuration not given here. Tyr(3-NO2) = N[C@@H](Cc1ccc(O)c([N+](=O)[O-])c1)C(=O)O; Phe(3-CF3) = N[C@@H](Cc1cccc(C(F)(F)F)c1)C(=O)O; Ala(morpholin-4-yl) = N[C@@H](CN1CCOCC1)C(=O)O; Phe(4-COOH) = N[C@@H](Cc1ccc(C(=O)O)cc1)C(=O)O; Bip = N[C@@H](Cc1ccc(-c2ccccc2)cc1)C(=O)O; Phe(3-Cl) = N[C@@H](Cc1cccc(Cl)c1)C(=O)O; Phe(3-Me) = Cc1cccc(C[C@H](N)C(=O)O)c1; Phe(4-F) = N[C@@H](Cc1ccc(F)cc1)C(=O)O; Lys(Me2) = CN(C)CCCC[C@H](N)C(=O)O; Val(3-OH) = CC(C)(O)[C@H](N)C(=O)O; h4Pal = N[C@@H](CCc1ccncc1)C(=O)O; aIle = CC[C@@H](C)[C@H](N)C(=O)O; 4Pal = N[C@@H](Cc1ccncc1)C(=O)O; Cha = N[C@@H](CC1CCCCC1)C(=O)O; Cit = NC(=O)NCCC[C@H](N)C(=O)O; Ile(3ξ) = CCC(C)[C@H](N)C(=O)O; dNle = CCCC[C@@H](N)C(=O)O; Carboxymethyl = O=C(O)C*; NMeA = CN[C@@H](C)C(=O)O; Orn = NCCC[C@H](N)C(=O)O; Dab = NCC[C@H](N)C(=O)O; Dap = NC[C@H](N)C(=O)O; ξV = CC(C)C(N)C(=O)O; ξC = NC(CS)C(=O)O

Molecular target: T1, PE-labeled human PD-L1-Ig binding to Jurkat cell line over-expressing human PD-1 (Jurkat-PD-1) (Homo sapiens, UniProt Q15116)
T1 construct: expressed in transfected cells; host or cells: Jurkat
Assay: Jurkat-PD-1 Cell Binding High-Content Screening Assay (CBA): Method 1
Details: Jurkat-hPD-1 cells, PE-labeled PD-L1-Ig 20 nM final; read-out: Jurkat HPDL1 PD1 IC50 (uM) (Method 1)

T1 sequence (Q15116 25-288): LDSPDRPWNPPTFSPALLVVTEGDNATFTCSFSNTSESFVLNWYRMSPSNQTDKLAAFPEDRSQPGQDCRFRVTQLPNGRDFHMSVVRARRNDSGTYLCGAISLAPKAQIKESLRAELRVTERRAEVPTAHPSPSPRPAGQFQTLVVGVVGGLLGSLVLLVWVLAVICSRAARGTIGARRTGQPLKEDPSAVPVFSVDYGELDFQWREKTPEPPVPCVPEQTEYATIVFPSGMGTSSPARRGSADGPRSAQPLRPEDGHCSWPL

Row | SMILES | IC50 [µM]
1 | CCC(C)[C@@H]1NC(=O)[C@H](Cc2ccc(-c3ccccc3)cc2)NC(=O)[C@H](C(C)C)NC(=O)[C@H](Cc2cccc(C)c2)NC(=O)[C@H](CC(=O)O)NC(=O)[C@H](Cc2ccc(OCC(=O)O)cc2)NC(=O)[C@H](CCCCN(C)C)NC(=O)CSCC(C(=O)NCC(N)=O)NC(=O)[C@H](CO)NC(=O)[C@H](C(C)C)NC(=O)[C@H](CC(C)C)NC(=O)[C@H](CC(N)=O)NC(=O)[C@@H](CC(C)C)NC(=O)[C@H](C)N(C)C1=O (stereo partly drawn) [Compound 2063] ({CH2CO}-[Lys(Me2)]Y(Carboxymethyl)D[Phe(3-Me)]V[Bip][Ile(3ξ)][NMeA][dL]NLVS[ξC]G-NH2; thioether N-14) | 0.05
2 | CC(C)C[C@@H]1NC(=O)[C@H](Cc2c[nH]c3ccccc23)NC(=O)[C@H](CC(=O)O)NC(=O)[C@H](Cc2ccc(O)c([N+](=O)[O-])c2)NC(=O)[C@H](Cc2ccccc2)NC(=O)CSC[C@@H](C(=O)N[C@@H](C)C(N)=O)NC(=O)[C@H](CO)NC(=O)[C@H](C(C)C)NC(=O)[C@H](CC(C)C)NC(=O)[C@H](CC(N)=O)NC(=O)[C@@H](C)NC(=O)[C@H](C)N(C)C(=O)[C@H](C(C)C)NC(=O)[C@H](Cc2ccc(-c3ccccc3)cc2)NC1=O [Compound 1738] ({CH2CO}-F[Tyr(3-NO2)]DWL[Bip]V[NMeA][dA]NLVSCA-NH2; thioether N-14) | 0.02
3 | CCC(C)[C@@H]1NC(=O)[C@H](Cc2ccc(-c3ccccc3)cc2)NC(=O)[C@H](C(C)C)NC(=O)[C@H](Cc2cccc(C)c2)NC(=O)[C@H](CC(=O)O)NC(=O)[C@H](Cc2cccc(C)c2)NC(=O)[C@H](Cc2ccncc2)NC(=O)CSC[C@@H](C(=O)N[C@@H](CO)C(=O)O)NC(=O)[C@H](CO)NC(=O)[C@H](C(C)C)NC(=O)[C@H](CC2CCCCC2)NC(=O)[C@H](CCN)NC(=O)[C@@H](CC(C)C)NC(=O)[C@H](C)N(C)C1=O (stereo partly drawn) [Compound 2235] ({CH2CO}-[4Pal][Phe(3-Me)]D[Phe(3-Me)]V[Bip][Ile(3ξ)][NMeA][dL][Dab][Cha]VSCS-OH; thioether N-14) | 0.3
4 | CC[C@H](C)[C@@H]1NC(=O)[C@H](Cc2ccc(-c3ccccc3)cc2)NC(=O)[C@H](C(C)(C)O)NC(=O)[C@H](Cc2cccc(C)c2)NC(=O)[C@H](CC(=O)O)NC(=O)[C@H](Cc2ccc(O)cc2)NC(=O)[C@H](CC(N)=O)NC(=O)CSC[C@@H](C(=O)N[C@H](C)C(N)=O)NC(=O)[C@H]([C@@H](C)O)NC(=O)[C@H](C(C)C)NC(=O)[C@H](CC2CCCCC2)NC(=O)[C@H](CCN)NC(=O)[C@@H](CC(C)C)NC(=O)[C@H](C)N(C)C1=O [Compound 1692] ({CH2CO}-NYD[Phe(3-Me)][Val(3-OH)][Bip]I[NMeA][dL][Dab][Cha]VTC[dA]-NH2; thioether N-14) | 0.08
5 | CC(C)C[C@@H]1NC(=O)[C@H](Cc2c[nH]c3ccccc23)NC(=O)[C@H](CC(=O)O)NC(=O)[C@H](Cc2ccc(O)cc2)NC(=O)[C@H](Cc2ccccc2)NC(=O)CSC[C@@H](C(=O)N[C@@H](C)C(N)=O)NC(=O)[C@H](CO)NC(=O)[C@H](CCN)NC(=O)[C@H](CC(C)C)NC(=O)[C@H](CC(N)=O)NC(=O)[C@@H](CC(C)C)NC(=O)[C@H](C)N(C)C(=O)[C@H](C(C)C)NC(=O)[C@H](Cc2ccc(-c3ccccc3)cc2)NC1=O [Compound 1538] ({CH2CO}-FYDWL[Bip]V[NMeA][dL]NL[Dab]SCA-NH2; thioether N-14) | 0.1
6 | CC(C)C[C@H]1NC(=O)[C@H](C)N(C)C(=O)[C@H](CCC(N)=O)NC(=O)[C@H](Cc2ccc(-c3ccccc3)cc2)NC(=O)[C@H](Cc2ccc(C(=O)O)cc2)NC(=O)[C@H](Cc2cccc(C(F)(F)F)c2)NC(=O)[C@H](CC(N)=O)NC(=O)[C@H](Cc2ccc(OCC(=O)O)cc2)NC(=O)[C@H](CN2CCOCC2)NC(=O)CSC[C@@H](C(=O)N[C@@H](CCN)C(N)=O)NC(=O)[C@H](CCCN)NC(=O)[C@H](C(C)C)NC(=O)[C@H](CC2CCCCC2)NC(=O)[C@H](CCN)NC1=O [Example 2280] ({CH2CO}-[Ala(morpholin-4-yl)]Y(Carboxymethyl)N[Phe(3-CF3)][Phe(4-COOH)][Bip]Q[NMeA][dL][Dab][Cha]V[Orn]C[Dab]-NH2; thioether N-14) | 0.14
7 | CCCC[C@H]1NC(=O)[C@H](C)N(C)C(=O)[C@H](C(C)C)NC(=O)[C@H](Cc2ccc(-c3ccccc3)cc2)NC(=O)[C@H](CC(C)C)NC(=O)[C@H](Cc2c[nH]c3ccccc23)NC(=O)[C@H](CC(=O)O)NC(=O)[C@H](Cc2ccc(O)cc2)NC(=O)[C@H](Cc2ccccc2)NC(=O)CSC[C@@H](C(=O)N[C@@H](C)C(N)=O)NC(=O)[C@H](CO)NC(=O)[C@H](C(C)C)NC(=O)[C@H](CC(C)C)NC(=O)[C@H](CC(N)=O)NC1=O [Compound 1753] ({CH2CO}-FYDWL[Bip]V[NMeA][dNle]NLVSCA-NH2; thioether N-14) | 0.03
8 | Cc1cccc(C[C@@H]2NC(=O)[C@H](CC(=O)O)NC(=O)[C@H](CCc3ccncc3)NC(=O)[C@H](CN)NC(=O)CSC[C@@H](C(=O)N[C@@H](C)C(N)=O)NC(=O)[C@H]([C@@H](C)O)NC(=O)[C@H](C(C)C)NC(=O)[C@H](CC(C)C)NC(=O)[C@H](CCN)NC(=O)[C@@H](CC(C)C)NC(=O)[C@H](C)N(C)C(=O)[C@H](CCCNC(N)=O)NC(=O)[C@H](Cc3ccc(-c4ccccc4)cc3)NC(=O)[C@H](C(C)C)NC2=O)c1 [Compound 1547] ({CH2CO}-[Dap][h4Pal]D[Phe(3-Me)]V[Bip][Cit][NMeA][dL][Dab]LVTCA-NH2; thioether N-14) | 0.01
9 | CC(C)C[C@@H]1NC(=O)[C@H](Cc2c[nH]c3ccccc23)NC(=O)[C@H](CC(=O)O)NC(=O)[C@H](Cc2ccc(OCC(=O)O)cc2)NC(=O)[C@H](Cc2ccncc2)NC(=O)CSC[C@@H](C(=O)NCC(N)=O)NC(=O)[C@H](CO)NC(=O)[C@H](C(C)C)NC(=O)[C@H](CC(C)C)NC(=O)[C@H](CC(N)=O)NC(=O)[C@@H](CC(C)C)NC(=O)[C@H](C)N(C)C(=O)[C@H](C(C)C)NC(=O)[C@H](Cc2ccc(-c3ccccc3)cc2)NC1=O [Compound 1551] ({CH2CO}-[4Pal]Y(Carboxymethyl)DWL[Bip]V[NMeA][dL]NLVSCG-NH2; thioether N-14) | 0.01
10 | CC[C@@H](C)[C@@H]1NC(=O)[C@H](Cc2ccc(-c3ccccc3)cc2)NC(=O)[C@H](CC(C)C)NC(=O)[C@H](Cc2c[nH]c3ccccc23)NC(=O)[C@H](CC(=O)O)NC(=O)[C@H](Cc2ccc(C(=O)O)cc2)NC(=O)[C@H](Cc2ccc(OCC(=O)O)cc2)NC(=O)CSC[C@@H](C(=O)N[C@@H](CCCCN)C(N)=O)NC(=O)[C@H](CC(N)=O)NC(=O)C(C(C)C)NC(=O)[C@H](CC(C)C)NC(=O)[C@H](CC(N)=O)NC(=O)[C@@H](CC(C)C)NC(=O)[C@H](C)N(C)C1=O (stereo partly drawn) [Compound 2109] ({CH2CO}-Y(Carboxymethyl)[Phe(4-COOH)]DWL[Bip][aIle][NMeA][dL]NL[ξV]NCK-NH2; thioether N-14) | 0.2

Other lines, results leading:

Row | IC50 [µM] | SMILES
11 | 0.22 | CC(C)C[C@@H]1NC(=O)[C@H](CCCCN)NC(=O)[C@@H](CC(C)C)NC(=O)[C@H](C)N(C)C(=O)[C@H](CCCNC(=N)N)NC(=O)[C@H](Cc2ccc(-c3ccccc3)cc2)NC(=O)[C@H](C(C)C)NC(=O)[C@H](Cc2c[nH]c3ccccc23)NC(=O)[C@H](CC(=O)O)NC(=O)[C@H](Cc2ccc(O)cc2)NC(=O)[C@H](CC(N)=O)NC(=O)CSC[C@@H](C(=O)N[C@@H](CCC(=O)O)C(N)=O)NC(=O)[C@H]([C@@H](C)O)NC(=O)[C@H](C(C)C)NC1=O [Compound 1173] ({CH2CO}-NYDWV[Bip]R[NMeA][dL]KLVTCE-NH2; thioether N-14)
12 | 0.01 | CC(C)C[C@@H]1NC(=O)[C@H](CCN)NC(=O)[C@@H](CC(C)C)NC(=O)[C@H](C)N(C)C(=O)[C@H](C(C)C)NC(=O)[C@H](Cc2ccc(-c3ccccc3)cc2)NC(=O)[C@H](C(C)C)NC(=O)[C@H](Cc2c[nH]c3ccccc23)NC(=O)[C@H](CC(=O)O)NC(=O)[C@H](Cc2ccc(O)cc2)NC(=O)[C@H](CCN)NC(=O)CSC[C@@H](C(=O)N[C@@H](C)C(N)=O)NC(=O)[C@H]([C@@H](C)O)NC(=O)[C@H](C(C)C)NC1=O [Compound 1361] ({CH2CO}-[Dab]YDWV[Bip]V[NMeA][dL][Dab]LVTCA-NH2; thioether N-14)
13 | 0.08 | CC(C)C[C@@H]1NC(=O)[C@H](Cc2c[nH]c3ccccc23)NC(=O)[C@H](CC(=O)O)NC(=O)[C@H](Cc2ccc(O)cc2)NC(=O)[C@H](Cc2ccccc2)NC(=O)CSC[C@@H](C(=O)N[C@@H](C)C(N)=O)NC(=O)[C@H](CO)NC(=O)[C@H](C(C)C)NC(=O)[C@H](CC(C)C)NC(=O)[C@H](CCCNC(=N)N)NC(=O)[C@@H](C)NC(=O)[C@H](C)N(C)C(=O)[C@H](CCCNC(=N)N)NC(=O)[C@H](Cc2ccc(-c3ccccc3)cc2)NC1=O [Compound 1782] ({CH2CO}-FYDWL[Bip]R[NMeA][dA]RLVSCA-NH2; thioether N-14)
14 | 0.03 | CC(C)C[C@@H]1NC(=O)[C@H](CCCNC(=N)N)NC(=O)[C@@H](CC(C)C)NC(=O)[C@H](C)N(C)C(=O)[C@H](C(C)C)NC(=O)[C@H](Cc2ccc(-c3ccccc3)cc2)NC(=O)[C@H](C(C)C)NC(=O)[C@H](Cc2cccc(Cl)c2)NC(=O)[C@H](CC(=O)O)NC(=O)[C@H](Cc2ccc(O)cc2)NC(=O)[C@H](CC(N)=O)NC(=O)CSC[C@@H](C(=O)N[C@@H](C)C(N)=O)NC(=O)[C@H]([C@@H](C)O)NC(=O)[C@H](C(C)C)NC1=O [Compound 1274] ({CH2CO}-NYD[Phe(3-Cl)]V[Bip]V[NMeA][dL]RLVTCA-NH2; thioether N-14)
15 | 0.14 | CC(C)C[C@@H]1NC(=O)[C@H](CCCNC(=N)N)NC(=O)[C@@H](CC(C)C)NC(=O)[C@H](C)N(C)C(=O)[C@H](CCCNC(=N)N)NC(=O)[C@H](Cc2ccc(-c3ccccc3)cc2)NC(=O)[C@H](C(C)C)NC(=O)[C@H](Cc2c[nH]c3ccccc23)NC(=O)[C@H](CC(=O)O)NC(=O)[C@H](Cc2ccc(F)cc2)NC(=O)[C@H](Cc2ccccc2)NC(=O)CSC[C@@H](C(=O)N[C@@H](C)C(N)=O)NC(=O)[C@H]([C@@H](C)O)NC(=O)[C@H](C(C)C)NC1=O [Compound 1080] ({CH2CO}-F[Phe(4-F)]DWV[Bip]R[NMeA][dL]RLVTCA-NH2; thioether N-14)
